{"source": "patent US10550111B2", "about": "“Pyrimidine urea compound containing isoxazolines and use thereof” (SHENYANG SINOCHEM AGROCHEMICALS R&D CO., LTD, priority 2014, dated 2020);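 as to pre-emergence and post-emergence herbicidal activity against broad-leaf weeds and grass weeds: 0 means no visible effect and 100 means all weeds dead or not emerged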", "type_in_all_cases": "in vivo", "key": {"[1]": {"system": "Setaria glauca (L.) Beauv.", "assay": "Bioassay of herbicidal activity in greenhouse (further screening)", "method_in_brief": "(§1)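 Weeds grown from seed in soil pots in greenhouse; emulsifiable-concentrate compounds applied by track sprayer pre-emergence (24 h after sowing) or post-emergence (grass 2–3-leaf, broad-leaf 2–4-leaf stage). Growth inhibition (%) scored visually, 0 = no action, 100 = all dead or not emerged.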"}, "[2]": {"system": "Abutilon theophrasti Medic.", "assay": "Bioassay of herbicidal activity in greenhouse (further screening)", "method_in_brief": "as §1"}, "Zinnia elegans Jacq.": {"system": "Zinnia elegans Jacq.", "assay": "Bioassay of herbicidal activity in greenhouse (further screening)", "method_in_brief": "as §1"}, "[3]": {"system": "Echinochloa crus-galli (L.) Beauv.", "assay": "Bioassay of herbicidal activity in greenhouse (further screening)", "method_in_brief": "as §1"}, "[4]": {"system": "broad-leaf weeds and grass weeds", "assay": "General screening of herbicidal activity in greenhouse", "conditions": "1000 g a.i./hm^2", "method_in_brief": "as §1"}}}
{"smiles": "Cn1c(C(F)(F)F)cc(=O)n(-c2cc(C3=NOC(C)(C(=O)OCC4CCCO4)C3)c(Cl)cc2F)c1=O", "note": "(stereo not shown) [Compound 398]", "values": [{"measurement": "Growth inhibition rate, Post-emergence treatment, Setaria glauca (L.) Beauv.", "setting": "[1]; dose 7.5 g a.i./hm^2", "result": 55, "unit": "%"}, {"measurement": "Growth inhibition rate, Post-emergence treatment, Setaria glauca (L.) Beauv.", "setting": "[1]; dose 15 g a.i./hm^2", "result": 95, "unit": "%"}, {"measurement": "Growth inhibition rate, Post-emergence treatment, Setaria glauca (L.) Beauv.", "setting": "[1]; dose 30.0 g a.i./hm^2", "result": 100, "unit": "%"}, {"measurement": "Growth inhibition rate, Post-emergence treatment, Setaria glauca (L.) Beauv.", "setting": "[1]; dose 60.0 g a.i./hm^2", "result": 100, "unit": "%"}, {"measurement": "Growth inhibition rate, Post-emergence treatment, Setaria glauca (L.) Beauv.", "setting": "[1]; dose 120.0 g a.i./hm^2", "result": 100, "unit": "%"}, {"measurement": "Growth inhibition rate, Post-emergence treatment, Abutilon theophrasti Medic.", "setting": "[2]; dose 7.5 g a.i./hm^2", "result": 98, "unit": "%"}, {"measurement": "Growth inhibition rate, Post-emergence treatment, Abutilon theophrasti Medic.", "setting": "[2]; dose 15 g a.i./hm^2", "result": 98, "unit": "%"}, {"measurement": "Growth inhibition rate, Post-emergence treatment, Abutilon theophrasti Medic.", "setting": "[2]; dose 30.0 g a.i./hm^2", "result": 100, "unit": "%"}, {"measurement": "Growth inhibition rate, Post-emergence treatment, Abutilon theophrasti Medic.", "setting": "[2]; dose 60.0 g a.i./hm^2", "result": 100, "unit": "%"}, {"measurement": "Growth inhibition rate, Post-emergence treatment, Abutilon theophrasti Medic.", "setting": "[2]; dose 120.0 g a.i./hm^2", "result": 100, "unit": "%"}, {"measurement": "Growth inhibition rate, Post-emergence treatment, Zinnia elegans Jacq.", "setting": "Zinnia elegans Jacq.; dose 7.5 g a.i./hm^2", "result": 65, "unit": "%"}, {"measurement": "Growth inhibition rate, Post-emergence treatment, Zinnia elegans Jacq.", "setting": "Zinnia elegans Jacq.; dose 15 g a.i./hm^2", "result": 90, "unit": "%"}, {"measurement": "Growth inhibition rate, Post-emergence treatment, Zinnia elegans Jacq.", "setting": "Zinnia elegans Jacq.; dose 30.0 g a.i./hm^2", "result": 100, "unit": "%"}, {"measurement": "Growth inhibition rate, Post-emergence treatment, Zinnia elegans Jacq.", "setting": "Zinnia elegans Jacq.; dose 60.0 g a.i./hm^2", "result": 100, "unit": "%"}, {"measurement": "Growth inhibition rate, Post-emergence treatment, Zinnia elegans Jacq.", "setting": "Zinnia elegans Jacq.; dose 120.0 g a.i./hm^2", "result": 100, "unit": "%"}, {"measurement": "Growth inhibition rate, Post-emergence treatment, Echinochloa crus-galli (L.) Beauv.", "setting": "[3]; dose 7.5 g a.i./hm^2", "result": 65, "unit": "%"}, {"measurement": "Growth inhibition rate, Post-emergence treatment, Echinochloa crus-galli (L.) Beauv.", "setting": "[3]; dose 15 g a.i./hm^2", "result": 75, "unit": "%"}, {"measurement": "Growth inhibition rate, Post-emergence treatment, Echinochloa crus-galli (L.) Beauv.", "setting": "[3]; dose 30.0 g a.i./hm^2", "result": 95, "unit": "%"}, {"measurement": "Growth inhibition rate, Post-emergence treatment, Echinochloa crus-galli (L.) Beauv.", "setting": "[3]; dose 60.0 g a.i./hm^2", "result": 100, "unit": "%"}, {"measurement": "Growth inhibition rate, Post-emergence treatment, Echinochloa crus-galli (L.) Beauv.", "setting": "[3]; dose 120.0 g a.i./hm^2", "result": 100, "unit": "%"}, {"measurement": "pre-emergence and post-emergence herbicidal activity against broad-leaf weeds and grass weeds", "setting": "[4]", "result": "good"}]}
{"smiles": "Cn1c(C(F)(F)F)cc(=O)n(-c2cc(C3=NOC(C)(C(N)=O)C3)c(Cl)cc2F)c1=O", "note": "(stereo not shown) [Compound 22]", "values": [{"measurement": "Growth inhibition rate, Post-emergence treatment, Setaria glauca (L.) Beauv.", "setting": "[1]; dose 37.5 g a.i./hm^2", "result": 10, "unit": "%"}, {"measurement": "Growth inhibition rate, Post-emergence treatment, Setaria glauca (L.) Beauv.", "setting": "[1]; dose 150 g a.i./hm^2", "result": 10, "unit": "%"}, {"measurement": "Growth inhibition rate, Post-emergence treatment, Setaria glauca (L.) Beauv.", "setting": "[1]; dose 600 g a.i./hm^2", "result": 15, "unit": "%"}, {"measurement": "Growth inhibition rate, Pre-emergence treatment, Setaria glauca (L.) Beauv.", "setting": "[1]; dose 37.5 g a.i./hm^2", "result": 0, "unit": "%"}, {"measurement": "Growth inhibition rate, Pre-emergence treatment, Setaria glauca (L.) Beauv.", "setting": "[1]; dose 150 g a.i./hm^2", "result": 0, "unit": "%"}, {"measurement": "Growth inhibition rate, Pre-emergence treatment, Setaria glauca (L.) Beauv.", "setting": "[1]; dose 600 g a.i./hm^2", "result": 0, "unit": "%"}, {"measurement": "Growth inhibition rate, Post-emergence treatment, Abutilon theophrasti Medic.", "setting": "[2]; dose 37.5 g a.i./hm^2", "result": 30, "unit": "%"}, {"measurement": "Growth inhibition rate, Post-emergence treatment, Abutilon theophrasti Medic.", "setting": "[2]; dose 150 g a.i./hm^2", "result": 55, "unit": "%"}, {"measurement": "Growth inhibition rate, Post-emergence treatment, Abutilon theophrasti Medic.", "setting": "[2]; dose 600 g a.i./hm^2", "result": 100, "unit": "%"}, {"measurement": "Growth inhibition rate, Pre-emergence treatment, Abutilon theophrasti Medic.", "setting": "[2]; dose 37.5 g a.i./hm^2", "result": 0, "unit": "%"}, {"measurement": "Growth inhibition rate, Pre-emergence treatment, Abutilon theophrasti Medic.", "setting": "[2]; dose 150 g a.i./hm^2", "result": 0, "unit": "%"}, {"measurement": "Growth inhibition rate, Pre-emergence treatment, Abutilon theophrasti Medic.", "setting": "[2]; dose 600 g a.i./hm^2", "result": 0, "unit": "%"}, {"measurement": "Growth inhibition rate, Post-emergence treatment, Zinnia elegans Jacq.", "setting": "Zinnia elegans Jacq.; dose 37.5 g a.i./hm^2", "result": 55, "unit": "%"}, {"measurement": "Growth inhibition rate, Post-emergence treatment, Zinnia elegans Jacq.", "setting": "Zinnia elegans Jacq.; dose 150 g a.i./hm^2", "result": 90, "unit": "%"}, {"measurement": "Growth inhibition rate, Post-emergence treatment, Zinnia elegans Jacq.", "setting": "Zinnia elegans Jacq.; dose 600 g a.i./hm^2", "result": 95, "unit": "%"}, {"measurement": "Growth inhibition rate, Pre-emergence treatment, Zinnia elegans Jacq.", "setting": "Zinnia elegans Jacq.; dose 37.5 g a.i./hm^2", "result": 0, "unit": "%"}, {"measurement": "Growth inhibition rate, Pre-emergence treatment, Zinnia elegans Jacq.", "setting": "Zinnia elegans Jacq.; dose 150 g a.i./hm^2", "result": 0, "unit": "%"}, {"measurement": "Growth inhibition rate, Pre-emergence treatment, Zinnia elegans Jacq.", "setting": "Zinnia elegans Jacq.; dose 600 g a.i./hm^2", "result": 0, "unit": "%"}, {"measurement": "Growth inhibition rate, Post-emergence treatment, Echinochloa crus-galli (L.) Beauv.", "setting": "[3]; dose 37.5 g a.i./hm^2", "result": 0, "unit": "%"}, {"measurement": "Growth inhibition rate, Post-emergence treatment, Echinochloa crus-galli (L.) Beauv.", "setting": "[3]; dose 150 g a.i./hm^2", "result": 5, "unit": "%"}, {"measurement": "Growth inhibition rate, Post-emergence treatment, Echinochloa crus-galli (L.) Beauv.", "setting": "[3]; dose 600 g a.i./hm^2", "result": 10, "unit": "%"}, {"measurement": "Growth inhibition rate, Pre-emergence treatment, Echinochloa crus-galli (L.) Beauv.", "setting": "[3]; dose 37.5 g a.i./hm^2", "result": 0, "unit": "%"}, {"measurement": "Growth inhibition rate, Pre-emergence treatment, Echinochloa crus-galli (L.) Beauv.", "setting": "[3]; dose 150 g a.i./hm^2", "result": 0, "unit": "%"}, {"measurement": "Growth inhibition rate, Pre-emergence treatment, Echinochloa crus-galli (L.) Beauv.", "setting": "[3]; dose 600 g a.i./hm^2", "result": 0, "unit": "%"}, {"measurement": "pre-emergence and post-emergence herbicidal activity against broad-leaf weeds and grass weeds", "setting": "[4]", "result": "good"}]}
